# According to patent US8962549B2, “Polymeric benzyl carbonate-derivatives” (Baxter International Inc., priority 2008, dated 2015):
# Experiment: Release of tryptophan from PEG-tryptophan: incubation in cleavage buffer at 37° C., HPLC analysis
# Format: physicochemical
# Details: detection at 280 nm
# Method: A 0.10 mL aliquot of the PEGylated tryptophan reaction solution from Example 7 was diluted with 0.60 mL PBS buffer (0.10 M, NaCl, 0.10 M, Glycine 0.10M, pH 7.5) and incubated at 37° C. in an oven. Aliquots of 0.10 mL were withdrawn at incubation intervals of 2, 7, 32 and 102 hours, and were quenched with 10 μl of HCl (1.0 N diluted with 0.4 mL 20% acetonitrile containing 0.01% trifluoroacetic acid) for HPLC analysis (0.10 mL injection).
# The above procedure was repeated using a cleavage solution with a pH of 8.5 and incubation intervals of 1, 6, 24, and 32 hours.
# Both the PEG-tryptophan (Example 7) and cleavage samples were analyzed on C-18 reversed-phase HPLC with detection at 280 nm. The HPLC conditions are the following: C-18 column (Waters Symmetry, 4.6×250 mm), flow rate of 1.0 mL/min, gradient of acetonitrile 20% to 80% over 15 minutes followed by 10 minutes of washing at 80% acetonitrile (all contain 0.01% trifluoroacetic acid).
compound,measurement,setting,value
N[C@@H](Cc1c[nH]c2ccccc12)C(=O)O [Tryptophan],contents (HPLC integration area) of cleavage reaction,"pH 7.5 PBS with glycine 0.10 M, incubation time 2 hours",596
same,contents (HPLC integration area) of cleavage reaction,"pH 7.5 PBS with glycine 0.10 M, incubation time 7 hours",647
same,contents (HPLC integration area) of cleavage reaction,"pH 7.5 PBS with glycine 0.10 M, incubation time 32 hours",1329
same,contents (HPLC integration area) of cleavage reaction,"pH 7.5 PBS with glycine 0.10 M, incubation time 102 hours",2955
same,contents (HPLC integration area) of cleavage reaction,"pH 8.5 cleavage solution, incubation time 1 hour",735
same,contents (HPLC integration area) of cleavage reaction,"pH 8.5 cleavage solution, incubation time 6 hours",1183
same,contents (HPLC integration area) of cleavage reaction,"pH 8.5 cleavage solution, incubation time 24 hours",2442
same,contents (HPLC integration area) of cleavage reaction,"pH 8.5 cleavage solution, incubation time 32 hours",2498
